ChEMBL document CHEMBL3132797, “Synthesis and biological evaluation of substituted N-alkylphenyl-3,5-dinitrobenzamide analogs as anti-TB agents” (Medchemcomm, 2014)
In brackets after ≈: the same amount, converted by molar mass.

What was measured:
[1] = tested on: Mycobacterium tuberculosis; experiment: Antimycobacterial activity against Mycobacterium tuberculosis H37Rv ATCC 27294 by broth dilution method; format: functional
[2] = tested on: J774; experiment: Cytotoxicity against mouse J774 cells at 20 ug/ml after 24 hrs by MTT assay; format: cell-based; settings: j774, 24 h
[3] = tested on: J774; experiment: Cytotoxicity against mouse J774 cells after 24 hrs by MTT assay; format: cell-based; settings: J774, 24 h
[4] = Selectivity index, ratio of IC50 for mouse J774 cells to MIC for Mycobacterium tuberculosis H37Rv ATCC 27294; format: toxicity, cell-based; settings: read-out: Selectivity Index
[5] = tested on: Mycobacterium tuberculosis; experiment: Antimycobacterial activity against Mycobacterium tuberculosis H37Rv ATCC 27294 infected in mouse J774 cells assessed as intracellular killing after 48 hrs by colony formation assay; format: functional; settings: H37Rv ATCC 27294, 48 h
[6] = tested on: Mycobacterium tuberculosis; experiment: Bactericidal activity against Mycobacterium tuberculosis H37Rv ATCC 27294 by broth dilution method; format: functional
[7] = AUC (0 to t) in Balb mouse at 1 mg/kg, iv; format: ADME, organism-based; parameters: dose 1 mg/kg, route intravenous; settings: plasma
[8] = Clearance in Balb mouse at 1 mg/kg, iv; format: ADME, organism-based; parameters: dose 1 mg/kg, route intravenous; settings: in vivo
[9] = Elimination half life in Balb mouse at 1 mg/kg, iv; format: ADME, organism-based; parameters: dose 1 mg/kg, route intravenous; settings: in vivo, read-out: beta t1/2 (converted)
[10] = Bioavailability in Balb mouse at 2.5 mg/kg, ip; format: ADME, organism-based; settings: in vivo
[11] = Cmax in Balb mouse at 1 mg/kg, iv; format: ADME, organism-based; parameters: dose 1 mg/kg, route intravenous; settings: in vivo
[12] = AUC (0 to t) in Balb mouse at 2.5 mg/kg, ip; format: ADME, organism-based; parameters: dose 2.5 mg/kg, route intraperitoneal; settings: plasma
[13] = Elimination half life in Balb mouse at 2.5 mg/kg, ip; format: ADME, organism-based; parameters: dose 2.5 mg/kg, route intraperitoneal; settings: in vivo, read-out: beta t1/2 (converted)
[14] = Tmax in Balb mouse at 2.5 mg/kg, ip; format: ADME, organism-based; parameters: dose 2.5 mg/kg, route intraperitoneal; settings: in vivo
[15] = Cmax in Balb mouse at 2.5 mg/kg, ip; format: ADME, organism-based; parameters: dose 2.5 mg/kg, route intraperitoneal; settings: in vivo

## CC[C@@H](C)NC(=O)c1cc([N+](=O)[O-])cc([N+](=O)[O-])c1
[1]
  MIC: 1.87 µM (≈ 0.5 µg/mL)

## O=C(Nc1ccc(C(F)(F)F)cc1)c1cc([N+](=O)[O-])cc([N+](=O)[O-])c1
[1]
  MIC: 2.82 µM (≈ 1 µg/mL)

## C[C@H](c1ccccc1)N(C)C(=O)c1cc([N+](=O)[O-])cc([N+](=O)[O-])c1
[1]
  MIC: 1.52 µM (≈ 0.501 µg/mL)

## C[C@H](NC(=O)c1cc([N+](=O)[O-])cc([N+](=O)[O-])c1)c1ccccc1
[1]
  MIC: > 3.17 µM

## N#Cc1ccccc1NC(=O)c1cc([N+](=O)[O-])cc([N+](=O)[O-])c1
[1]
  MIC: 6.4 µM (≈ 2 µg/mL)

## CC(C)c1ccc(NC(=O)c2cc([N+](=O)[O-])cc([N+](=O)[O-])c2)cc1
[1]
  MIC: 12.1 µM (≈ 4 µg/mL)

## COc1ccc(CCNC(=O)c2cc([N+](=O)[O-])cc([N+](=O)[O-])c2)cc1
[1]
  MIC: 1.45 µM (≈ 0.501 µg/mL)

## O=C(NCCCc1ccccc1)c1cc([N+](=O)[O-])cc([N+](=O)[O-])c1
[1]
  MIC: 1.52 µM (≈ 0.501 µg/mL)

## Cc1ccc(C(C)NC(=O)c2cc([N+](=O)[O-])c(C)c([N+](=O)[O-])c2)cc1 (racemic)
[2]
  Activity: Non-toxic
[3]
  IC50: > 58.2 µM
[4]
  selectivity ratio: > 1330
[5]
  MIC: 0.72 µM (≈ 0.247 µg/mL)
[6]
  MBC: < 0.04 µM
[1]
  MIC: < 0.17 µM

## Cc1c([N+](=O)[O-])cc(C(=O)N[C@@H](C)c2ccc(F)cc2)cc1[N+](=O)[O-]
[7]
  AUC(0-t): 0.374 µM·h
[8]
  clearance: 111 mL/min/kg
[9]
  half-life: 54 min
[10]
  bioavailability: 35%
[11]
  Cmax: 711 nM
[12]
  AUC(0-t): 0.351 µM·h
[13]
  half-life: 64.8 min
[14]
  Tmax: 15 min
[15]
  Cmax: 216 nM
[2]
  Activity: Non-toxic
[3]
  IC50: > 57.6 µM
[4]
  selectivity ratio: > 1330
[5]
  MIC: < 0.64 µM
[6]
  MBC: < 0.04 µM
[1]
  MIC: 0.04 µM (≈ 0.0139 µg/mL)

## CC[C@@H](NC(=O)c1cc([N+](=O)[O-])cc([N+](=O)[O-])c1)c1ccccc1
[1]
  MIC: 0.76 µM (≈ 0.25 µg/mL)

## CCCCC(CC)CNC(=O)c1cc([N+](=O)[O-])cc([N+](=O)[O-])c1 (stereo not drawn)
[1]
  MIC: 0.19 µM (≈ 0.0614 µg/mL)

## CCCCC[C@@H](C)NC(=O)c1cc([N+](=O)[O-])cc([N+](=O)[O-])c1
[1]
  MIC: 1.62 µM (≈ 0.501 µg/mL)

## Cc1ccc([C@H](C)NC(=O)c2cc([N+](=O)[O-])cc([N+](=O)[O-])c2)cc1
[1]
  MIC: 0.76 µM (≈ 0.25 µg/mL)

## CCC[C@@H](NC(=O)c1cc([N+](=O)[O-])cc([N+](=O)[O-])c1)c1ccccc1
[1]
  MIC: 2.91 µM (≈ 0.999 µg/mL)

## CCCCC[C@H](C)NC(=O)c1cc([N+](=O)[O-])cc([N+](=O)[O-])c1
[1]
  MIC: 1.62 µM (≈ 0.501 µg/mL)

## Cc1ccc(CNC(=O)c2cc([N+](=O)[O-])cc([N+](=O)[O-])c2)cc1
[1]
  MIC: 3.17 µM (≈ 0.999 µg/mL)

## O=C(Nc1cc(Cl)cc(Cl)c1)c1cc([N+](=O)[O-])cc([N+](=O)[O-])c1
[1]
  MIC: 22.5 µM (≈ 8.02 µg/mL)

## CC[C@H](NC(=O)c1cc([N+](=O)[O-])cc([N+](=O)[O-])c1)c1ccccc1
[1]
  MIC: 3.04 µM (≈ 1 µg/mL)

## Cc1c([N+](=O)[O-])cc(C(=O)N[C@@H](C)c2ccc(Cl)cc2)cc1[N+](=O)[O-]
[1]
  MIC: > 5.51 µM

## Cc1ccc([C@@H](C)NC(=O)c2cc([N+](=O)[O-])cc([N+](=O)[O-])c2)cc1
[2]
  Activity: Non-toxic
[3]
  IC50: > 60.8 µM
[4]
  selectivity ratio: > 1330
[5]
  MIC: 0.8 µM (≈ 0.263 µg/mL)
[6]
  MBC: 0.2 µM (≈ 0.0659 µg/mL)
[1]
  MIC: 0.05 µM (≈ 0.0165 µg/mL)

## O=C(Nc1cccc(F)c1)c1cc([N+](=O)[O-])cc([N+](=O)[O-])c1
[1]
  MIC: 3.28 µM (≈ 1 µg/mL)

## Cc1c([N+](=O)[O-])cc(C(=O)NCc2ccccc2)cc1[N+](=O)[O-]
[1]
  MIC: 0.38 µM (≈ 0.12 µg/mL)

## Cc1ccc(CCNC(=O)c2cc([N+](=O)[O-])cc([N+](=O)[O-])c2)cc1
[1]
  MIC: 1.52 µM (≈ 0.501 µg/mL)

## Cc1ccc([C@@H](C)NC(=O)c2cc([N+](=O)[O-])c(C)c([N+](=O)[O-])c2)cc1
[7]
  AUC(0-t): 0.352 µM·h
[8]
  clearance: 134 mL/min/kg
[9]
  half-life: 55.8 min
[10]
  bioavailability: 49%
[11]
  Cmax: 673 nM
[12]
  AUC(0-t): 0.431 µM·h
[13]
  half-life: 97.8 min
[14]
  Tmax: 30 min
[15]
  Cmax: 177 nM
[2]
  Activity: Non-toxic
[3]
  IC50: > 58.2 µM
[4]
  selectivity ratio: > 666
[5]
  MIC: 1.44 µM (≈ 0.494 µg/mL)
[6]
  MBC: 0.72 µM (≈ 0.247 µg/mL)
[1]
  MIC: 0.09 µM (≈ 0.0309 µg/mL)
